Laboratory results published in US9447026B2, “Bicyclic analgesic compounds” (KALYRA PHARMACEUTICALS, INC., priority 2013, dated 2016).

Tests used:
[1] = system: male ICR mice; assay: Formalin Paw Test; assay type: in vivo
Protocol: One test compound or the vehicle was administered to each mouse in each test group (8 mice per group). Non-fasted male ICR mice weighing 23±3 g were used. Compounds of Formula (I) were administered at a concentration of 3 mg/kg, 10 mg/kg, 15 mg/kg, 30 mg/kg, 60 mg/kg, 100 mg/kg, 200 mg/kg or 300 mg/kg; morphine was administered at a concentration of 5 mg/kg; and acetaminophen was administered at a concentration of 200 mg/kg. The control group received the vehicle (5% DMSO/40% PEG400/20% HPbCD/Saline). After 30 or 60 minutes, a 2% formalin solution (0.02 mL) was injected into one hind paw (sub-plantar) of each mouse. Responses were measured every 5 minutes after the formalin injection for 35 minutes.

[2] = system: pooled human liver microsomes; assay: Glutathione Conjugation Assay; assay type: in vitro ADME; conditions: 100 μM test compound, 1 mM glutathione, NADPH, 60 mins at 37° C.
Protocol: An incubation mixture consisting of 5 μL of 10 mM test compound in DMSO (5 μL of DMSO for negative control; 5 μL of 10 mM acetaminophen in DMSO for positive control), 5 μL of 0.1 M glutathione 25 mM EDTA in water, 50 μL of 100 mM MgCl2 in water, 50 μL of 20 mg/mL pooled human liver microsomes (P-450 content: ˜0.5 nmol/mg protein), and 340 μL of 100 mM potassium phosphate buffer (pH 7.4) was preincubated at 37° C. for 10 mins. The reaction was initiated by the addition of 50 μL of 100 mM NADPH solution. The final incubation volume was 0.5 mL. The incubation mixture contains 100 μM test compound or acetaminophen (positive control), 1 mM glutathione, and 1 μM P450. After 60 mins incubation at 37° C., 1 mL of chilled acetonitrile was added to stop the reaction. After the addition of acetonitrile, the sample was vortexed and centrifuged. The supernatant was collected, concentrated in TurboVap under N2 (10 psi) at 30° C. for 35 mins, and transferred to a 96-well plate. The plate was capped and centrifuged. The supernatant was injected for LC-MS/MS analysis.
As a result, one skilled in the art would not expect compounds of Formula (I) to form the reactive metabolite NAPQI. A 129 neutral loss scan can be used to search or detect the formation of glutathione conjugates.

[3] = 200 mg/kg, administered 30 minutes before formalin injection, acetaminophen 200 mg/kg, FIG. 5

formation of reactive metabolite NAPQI [2]	Compound	amount less than the amount of acetaminophen needed to achieve the approximate same pain response ([1]; 60 mg/kg vs 200 mg/kg acetaminophen)	efficacy compared to acetaminophen, after 25 minutes [1, 3]	pain response compared to acetaminophen, initial 25 minutes [1, 3]	dosage providing a pain response approximately equal to 200 mg/kg of acetaminophen ([1]; dosages ranging from 3 mg/kg to 100 mg/kg, FIG. 9) [mg/kg]	pain response compared to acetaminophen, entire testing period ([1]; given 60 minutes prior to formalin injection, FIG. 10)	glutathione conjugate peak (129 neutral loss scan, LC-MS/MS) [2]	compound dose as percent of acetaminophen dose giving a lower pain response ([1]; 60 mg/kg vs 200 mg/kg acetaminophen, tonic phase)	duration of decrease in pain response (phases) ([1]; 200 mg/kg, administered 30 minutes before formalin injection, FIG. 4)	pain response compared to acetaminophen and morphine ([1]; 200 mg/kg, administered 30 minutes before formalin injection, morphine 5 mg/kg, acetaminophen 200 mg/kg, FIG. 4)	efficacy compared to acetaminophen, acute phase ([1]; all dosages ranging from 15 mg/kg to 200 mg/kg, FIG. 8)	pain response compared to acetaminophen ([1]; dosage 200 mg/kg, FIG. 8)	dose needed to reduce the pain response to a level less than 200 mg/kg of acetaminophen ([1]; tonic phase, FIG. 8) [mg/kg]
NAPQI was not formed	CC(=O)NC12CC(C1)C2 [compound 4, N-(bicyclo[1.1.1]pentan-1-yl)acetamide]	about 33%	increased efficacy compared to acetaminophen	reduces the pain response in a manner similar to acetaminophen for the initial 25 minutes	60	reduces the pain response in a manner similar to acetaminophen throughout the entire testing period	no glutathione conjugate peak was observed	–	–	–	–	–	–
NAPQI was not formed	CC(=O)NC12CC(NC(C)=O)(C1)C2 [compound 10, N,N′-(bicyclo[1.1.1]pentane-1,3-diyl)diacetamide]	–	–	–	–	–	no glutathione conjugate peak was observed	about 33%	lasted through both the early/acute phase (0-5 minutes) and the late/tonic phase (20-35 minutes)	significantly decreased the pain response compared to both acetaminophen and morphine	equal to or significant increased efficacy compared to acetaminophen	approximately 50%	60
